Reference: patent publication US8846704B2, “Thiopyrimidine-based compounds and uses thereof” (YM Biosciences Austraila Pty Ltd, priority 2007, dated 2014)

Key:
human JAK2 = molecular target: T1, human JAK2 (Homo sapiens, UniProt O60674); experiment: Alphascreen tyrosine kinase enzyme assay, JAK2 kinase domain; assay type: biochemical; conditions: read-out: JAK2 IC50_nM
T1 construct: The kinase domain of human JAK2 was amplified; GST (N); made in house; host or cells: Sf9 insect cells (baculovirus)
Summary of the method: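 JAK2 kinase domain expressed in baculovirus/Sf9 and glutathione-affinity purified. Compounds (final […]) pre-incubated 20 min with enzyme in 10 mM HEPES pH 7.5, MgCl2, NaCl, vanadate, 0.1% Tween 20.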

[1] = molecular target: T2, BaF3 TELJAK2 cells (BafT_J2) (Homo sapiens, UniProt O60674); experiment: Cellular screening, BaF3 TEL:JAK2 cells, Alamar Blue; assay type: cell-based; conditions: 40 hr, read-out: BafT_J2 IC50_nM
T2 construct: fused on or other part: TEL (ETV6) N-terminal part, coding nucleotides 1-487, serves as the oligomerising partner; It is fused through a Sal I site to the JAK2 kinase domain and expressed from pTRE2 in BaF3 cells bearing pTET-off; P41212 (Transcription factor ETV6)
Summary of the method: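 Tet-off BaF3 cells carrying a TEL (nt 1-487)–JAK2 kinase-domain fusion, grown factor-independently in DMEM with 10% Tet-approved FBS without WEHI 3B medium. Compounds were diluted to 20 μM in screening plates, and cells (50,000–200,000 cell/mL at 1.1×) were incubated 40 hr at 37 °C, 5% CO2. Alamar Blue was then added for 4-6 hours; read at 544 nm.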

Blk(m) = molecular target: T3, Blk(m) (Mus musculus, UniProt P16277); experiment: Upstate KinaseProfiler enzyme assay, Blk; assay type: biochemical; conditions: 500 nM compound; read-out: Percent inhibition at 500 nM Blk(m)
T3 construct: purchased Upstate Biotechnology (Dundee, UK), KinaseProfiler service
Summary of the method: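 Substrates are dissolved and diluted to working stocks in de-ionised water. Enzymes go into the assay from 10× working dilutions prepared in pH 7.0 MOPS buffer (20 mM) containing BSA 1 mg/ml, glycerol 5%, Brij-35 0.01%, β-mercaptoethanol 0.1% and EDTA 1 mM.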

T2 sequence (O60674 whole entry, change not shown, the tested form may be a part): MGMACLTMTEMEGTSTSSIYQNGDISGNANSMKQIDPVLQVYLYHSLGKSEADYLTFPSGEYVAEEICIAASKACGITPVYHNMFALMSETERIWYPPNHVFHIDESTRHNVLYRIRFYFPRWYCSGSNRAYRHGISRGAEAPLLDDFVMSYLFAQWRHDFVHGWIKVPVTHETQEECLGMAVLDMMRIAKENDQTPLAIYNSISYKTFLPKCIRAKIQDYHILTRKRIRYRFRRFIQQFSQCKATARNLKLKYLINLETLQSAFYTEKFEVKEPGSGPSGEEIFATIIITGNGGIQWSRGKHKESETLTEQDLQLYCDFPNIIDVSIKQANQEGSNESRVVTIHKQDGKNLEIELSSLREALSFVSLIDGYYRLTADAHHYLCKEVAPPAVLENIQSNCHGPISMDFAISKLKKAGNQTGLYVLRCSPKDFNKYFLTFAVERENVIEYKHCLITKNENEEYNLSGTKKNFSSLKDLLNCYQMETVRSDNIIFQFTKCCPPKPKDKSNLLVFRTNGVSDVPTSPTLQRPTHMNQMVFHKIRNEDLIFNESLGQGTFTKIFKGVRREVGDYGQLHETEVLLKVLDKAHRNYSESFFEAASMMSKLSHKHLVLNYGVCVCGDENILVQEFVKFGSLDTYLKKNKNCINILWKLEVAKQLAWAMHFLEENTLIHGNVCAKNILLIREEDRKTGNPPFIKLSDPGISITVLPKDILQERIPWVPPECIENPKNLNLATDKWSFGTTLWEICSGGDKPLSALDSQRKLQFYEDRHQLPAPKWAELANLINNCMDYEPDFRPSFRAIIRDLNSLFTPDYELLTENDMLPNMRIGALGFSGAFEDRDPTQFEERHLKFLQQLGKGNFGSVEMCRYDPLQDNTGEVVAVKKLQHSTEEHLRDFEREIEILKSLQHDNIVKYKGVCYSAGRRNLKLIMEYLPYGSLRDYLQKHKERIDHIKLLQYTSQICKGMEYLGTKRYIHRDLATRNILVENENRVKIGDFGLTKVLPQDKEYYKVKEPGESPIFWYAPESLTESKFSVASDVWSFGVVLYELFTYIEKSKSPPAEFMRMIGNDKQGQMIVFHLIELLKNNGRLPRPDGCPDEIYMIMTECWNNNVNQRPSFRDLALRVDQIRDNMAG
T3 sequence (P16277 whole entry): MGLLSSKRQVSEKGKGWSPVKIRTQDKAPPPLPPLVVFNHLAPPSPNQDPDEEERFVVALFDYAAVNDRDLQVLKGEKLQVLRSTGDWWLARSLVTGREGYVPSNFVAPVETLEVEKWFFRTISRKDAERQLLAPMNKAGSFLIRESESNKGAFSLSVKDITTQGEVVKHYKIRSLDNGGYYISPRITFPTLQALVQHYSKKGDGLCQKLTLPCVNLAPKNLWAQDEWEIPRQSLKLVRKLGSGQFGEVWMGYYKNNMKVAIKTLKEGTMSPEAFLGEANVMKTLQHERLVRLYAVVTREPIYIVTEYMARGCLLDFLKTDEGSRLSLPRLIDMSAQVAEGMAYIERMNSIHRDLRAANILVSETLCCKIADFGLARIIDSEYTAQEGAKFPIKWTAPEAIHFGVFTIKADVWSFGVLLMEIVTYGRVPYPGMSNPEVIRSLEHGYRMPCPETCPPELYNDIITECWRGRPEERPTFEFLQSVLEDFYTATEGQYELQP
T1 sequence (O60674 849-1124 limits assumed): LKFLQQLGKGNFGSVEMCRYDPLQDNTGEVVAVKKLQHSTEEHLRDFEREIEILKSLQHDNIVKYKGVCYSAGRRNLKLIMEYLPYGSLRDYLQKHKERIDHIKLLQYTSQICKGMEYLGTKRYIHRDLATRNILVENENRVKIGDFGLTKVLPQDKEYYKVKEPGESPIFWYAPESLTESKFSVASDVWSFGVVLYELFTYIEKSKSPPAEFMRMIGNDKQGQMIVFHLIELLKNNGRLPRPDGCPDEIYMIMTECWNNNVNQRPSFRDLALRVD

With `CC(=O)Nc1ccc(Sc2nc(Nc3ccc(N4CCOCC4)cc3)ncc2C)cc1` [Compound 135, N-(4-(5-methyl-2-(4-morpholinophenylao)pyrimidin-4-ylthio)phenyl)acetamide] the IC50 (human JAK2) was > 1 µM, the GI50 [1] was < 20 µM and the inhibition at 0.5 µM (Blk(m)) was 9%.

With `C=CC(=O)Nc1ccc(Sc2ccnc(Nc3ccc(N4CCOCC4)cc3)n2)c(Cl)c1C` [Compound 161, N-(3-chloro-2-methyl-4-(2-(4-morpholinophenylao)pyrimidin-4-ylthio)phenyl)acrylamide] the IC50 (human JAK2) was > 1 µM, the GI50 [1] was > 20 µM and the inhibition at 0.5 µM (Blk(m)) was 100%.

`C=CC(=O)Nc1cc(C)c(Sc2nc(Nc3ccc(N4CCOCC4)cc3)ncc2C)c(C)c1` [Compound 164, N-(3,5-dimethyl-4-(5-methyl-2-(4-morpholinophenylao)pyrimidin-4-ylthio)phenyl)acrylamide] was tested, and the IC50 (human JAK2) was > 1 µM, the GI50 [1] was < 20 µM and the inhibition at 0.5 µM (Blk(m)) was 62%.

In the case of `C=CC(=O)Nc1ccc(Sc2nc(Nc3ccc(N4CCC(C(=O)OCC)CC4)cc3)ncc2C)cc1` [Compound 292, ethyl 1-(4-(4-(4-acrylamidophenylthio)-5-methylpyrimidin-2-ylao)phenyl)piperidine-4-carboxylate], the IC50 (human JAK2) is reported as > 1 µM, the GI50 [1] is reported as > 20 µM and the inhibition at 0.5 µM (Blk(m)) is reported as 10%.

With `C=CC(=O)Nc1ccc(Sc2nc(Nc3ccc(CNS(C)(=O)=O)cc3)ncc2C)cc1` [Compound 294, N-(4-(5-methyl-2-(4-(methylsulfonamidomethyl)phenylao)pyrimidin-4-ylthio)phenyl)acrylamide] the IC50 (human JAK2) was > 1 µM, the GI50 [1] was > 20 µM and the inhibition at 0.5 µM (Blk(m)) was 37%.

With `C=CC(=O)Nc1ccc(Sc2nc(Nc3ccc(N4CCOCC4)cc3)ncc2-c2ccccc2)cc1` [Compound 307, N-(4-(2-(4-morpholinophenylao)-5-phenylpyrimidin-4-ylthio)phenyl)acrylamide] the IC50 (human JAK2) was > 1 µM, the GI50 [1] was > 20 µM and the inhibition at 0.5 µM (Blk(m)) was 0%.

`C=CC(=O)Nc1ccc(Sc2ccnc(Nc3ccccc3)n2)cc1` [Compound 350, N-(4-(2-(phenylao)pyrimidin-4-ylthio)phenyl)acrylamide] was tested, and the IC50 (human JAK2) was > 1 µM, the GI50 [1] was < 20 µM and the inhibition at 0.5 µM (Blk(m)) was 100%.

For `C=CC(=O)Nc1ccc(Sc2ccnc(Nc3ccc(S(N)(=O)=O)cc3)n2)cc1` [Compound 352, N-(4-(2-(4-sulfamoylphenylao)pyrimidin-4-ylthio)phenyl)acrylamide], the IC50 (human JAK2) was > 1 µM, the GI50 [1] was < 20 µM and the inhibition at 0.5 µM (Blk(m)) was 100%.

With `C=CC(=O)Nc1ccc(Sc2ccnc(Nc3ccc(Cl)cc3)n2)cc1` [Compound 353, N-(4-(2-(4-chlorophenylao)pyrimidin-4-ylthio)phenyl)acrylamide] the IC50 (human JAK2) was > 1 µM, the GI50 [1] was < 20 µM and the inhibition at 0.5 µM (Blk(m)) was 100%.

For `C=CC(=O)Nc1ccc(Sc2ccnc(Nc3ccc(F)c(C#N)c3)n2)cc1` [Compound 354, N-(4-(2-(3-cyano-4-fluorophenylao)pyrimidin-4-ylthio)phenyl)acrylamide], the IC50 (human JAK2) was > 1 µM, the GI50 [1] was < 20 µM and the inhibition at 0.5 µM (Blk(m)) was 100%.

With `C=CC(=O)Nc1ccc(Sc2ccnc(Nc3cccc(C(=O)OC)c3)n2)cc1` [Compound 356, methyl 3-(4-(4-acrylamidophenylthio)pyrimidin-2-ylao)benzoate] the IC50 (human JAK2) was > 1 µM, the GI50 [1] was < 20 µM and the inhibition at 0.5 µM (Blk(m)) was 100%.

For `C=CC(=O)Nc1ccc(Sc2ccnc(Nc3ccc(C(=O)OC)cc3)n2)cc1` [Compound 357, methyl 4-(4-(4-acrylamidophenylthio)pyrimidin-2-ylao)benzoate], the IC50 (human JAK2) was > 1 µM, the GI50 [1] was < 5 µM and the inhibition at 0.5 µM (Blk(m)) was 48%.

With `C=CC(=O)Nc1ccc(Sc2ccnc(Nc3cccc(S(N)(=O)=O)c3)n2)cc1` [Compound 364, N-(4-(2-(3-sulfamoylphenylao)pyrimidin-4-ylthio)phenyl)acrylamide] the IC50 (human JAK2) was > 1 µM, the GI50 [1] was < 5 µM and the inhibition at 0.5 µM (Blk(m)) was 81%.
